The target in one assay is b-Raf (V600E) (Homo sapiens (Human), UniProt P15056, V600E). The conditions noted are these: read-out: b-Raf IC-50; AlphaScreen, 60 min pre-incubation, 3 hours reaction.
Chain of b-Raf (V600E) (P15056 whole entry V600E): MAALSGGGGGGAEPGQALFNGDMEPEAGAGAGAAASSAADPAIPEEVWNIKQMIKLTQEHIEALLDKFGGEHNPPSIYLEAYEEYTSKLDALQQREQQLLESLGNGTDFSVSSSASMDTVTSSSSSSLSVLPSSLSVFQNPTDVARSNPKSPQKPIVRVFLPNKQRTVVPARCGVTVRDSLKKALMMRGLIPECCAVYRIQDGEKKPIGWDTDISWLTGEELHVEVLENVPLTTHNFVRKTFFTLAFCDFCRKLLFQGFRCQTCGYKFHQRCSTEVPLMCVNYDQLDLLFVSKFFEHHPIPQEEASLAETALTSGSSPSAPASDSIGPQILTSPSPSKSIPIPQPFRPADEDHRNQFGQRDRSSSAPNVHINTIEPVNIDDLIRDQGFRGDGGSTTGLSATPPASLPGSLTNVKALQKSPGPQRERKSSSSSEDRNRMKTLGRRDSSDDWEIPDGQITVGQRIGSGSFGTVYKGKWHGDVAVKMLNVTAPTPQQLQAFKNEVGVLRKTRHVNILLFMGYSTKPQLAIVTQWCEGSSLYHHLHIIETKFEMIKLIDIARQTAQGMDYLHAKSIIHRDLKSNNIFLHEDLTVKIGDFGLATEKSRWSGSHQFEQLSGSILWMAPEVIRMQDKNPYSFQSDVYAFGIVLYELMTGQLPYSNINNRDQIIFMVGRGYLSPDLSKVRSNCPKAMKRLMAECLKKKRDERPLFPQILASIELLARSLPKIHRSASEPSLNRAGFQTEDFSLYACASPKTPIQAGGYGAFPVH
Regarding `CCC(F)(F)c1cc(C(=O)Nc2cnc(C)c(-c3cncc(N4CCOCC4)n3)c2)ccn1` [Example 537, 2-(1,1-difluoropropyl)-N-(6-methyl-5-(6-morpholinopyrazin-2-yl)pyridin-3-yl)isonicotinamide], the IC50 is 4.4 nM. `Cc1ccc(NC(=O)c2cc(F)cc(N3CCOCC3)c2)cc1-c1cc(N2CCOCC2)n(C)c(=O)c1` [Example 491, 3-fluoro-N-(4-methyl-3-(1-methyl-6-morpholino-2-oxo-1,2-dihydropyridin-4-yl)phenyl)-5-morpholinobenzamide]: the IC50 stood at 2.1 nM. The same measure, in the same setting: the same measure for `Cc1ccc(NC(=O)c2ccnc(C(C)(F)F)c2)cc1-c1cc(N2CCOCC2)c(OC2CCOCC2)nn1` [Example 579, 2-(1,1-difluoroethyl)-N-(4-methyl-3-(5-morpholino-6-((tetrahydro-2H-pyran-4-yl)oxy)pyridazin-3-yl)phenyl)isonicotinamide]: 0.6 nM. Same read-out and setting: the same measure for `CCOc1ncc(-c2cc(NC(=O)c3cccc(C(F)(F)F)c3)cnc2C)nc1N1CCOCC1` [Example 539, N-(5-(5-ethoxy-6-morpholinopyrazin-2-yl)-6-methylpyridin-3-yl)-3-(trifluoromethyl)benzamide]: 2.8 nM. On the same count and under the same terms, in the case of `Cc1ncc(C(=O)Nc2cccc(C(F)(F)F)c2)cc1-c1cc(N2CCOCC2)c(=O)n(C)c1` [Example 443, 1′,2-dimethyl-5′-morpholino-6′-oxo-N-(3-(trifluoromethyl)phenyl)-1′,6′-dihydro-[3,3′-bipyridine]-5-carboxamide] it was 6.2 nM. As to `CCNc1nc(-c2cc(NC(=O)c3ccnc(C(C)(C)C#N)c3)ccc2C)cc(N2CCOC[C@@H]2C)n1` [Example 714, (S)-2-(2-cyanopropan-2-yl)-N-(3-(2-(ethylamino)-6-(3-methylmorpholino)pyrimidin-4-yl)-4-methylphenyl)isonicotinamide], the IC50 is 2.5 nM.

Take `Cc1ccc(NC(=O)c2ccnc(C(C)(C)C#N)c2)cc1-c1cc(N2CCOCC2)n2nccc2n1` [Example 792, 2(2-cyanopropan-2-yl)-N-(4-methyl-3(7-morpholinopyrazolo[1,5-a]pyrimidin-5-yl)phenyl)isonicotinamide]: the IC50 was found to be 1.7 nM.

On to `COc1nnc(-c2cc(NC(=O)c3ccnc(C(C)(F)F)c3)ccc2C)cc1N1CCOCC1` [Example 548, 2-(1,1-difluoroethyl)-N-(3-(6-methoxy-5-morpholinopyridazin-3-yl)-4-methylphenyl)isonicotinamide], for which the IC50 came to 1.1 nM. The same measure, in the same setting: in the case of `CCOc1nnc(-c2cc(NC(=O)c3ccnc(C(C)(C)C#N)c3)ccc2C)cc1N1CCOCC1` [Example 573, 2-(2-cyanopropan-2-yl)-N-(3-(6-ethoxy-5-morpholinopyridazin-3-yl)-4-methylphenyl)isonicotinamide] it was 0.8 nM; in that of `CCOc1nnc(-c2cc(NC(=O)c3ccc(CO)c(C(F)(F)F)c3)cnc2C)cc1N1CCOCC1` [Example 627, N-(5-(6-ethoxy-5-morpholinopyridazin-3-yl)-6-methylpyridin-3-yl)-4-(hydroxymethyl)-3-(trifluoromethyl)benzamide], 3.7 nM. Same read-out and setting: the same measure for `Cc1ccc(NC(=O)c2cccc(C(F)F)c2)cc1-c1cc(N2CCOCC2)n(C)c(=O)c1` [Example 484, 3-(difluoromethyl)-N-(4-methyl-3-(1-methyl-6-morpholino-2-oxo-1,2-dihydropyridin-4-yl)phenyl)benzamide]: 0.4 nM; for `CCN1CCN(c2cc(C(=O)Nc3ccc(C)c(-c4cc(N5CCOCC5)n(C)c(=O)c4)c3)cc(C(F)(F)F)c2)CC1` [Example 490, 3-(4-ethylpiperazin-1-yl)-N-(4-methyl-3-(1-methyl-6-morpholino-2-oxo-1,2-dihydropyridin-4-yl)phenyl)-5-(trifluoromethyl)benzamide]: 2.5 nM.

The same assay, now with this note: read-out: b-Raf IC-50; AlphaScreen, 60 min pre-incubation, reaction 3 hours at room temperature.
With `Cc1ccc(NC(=O)c2ccnc(S(C)(=O)=O)c2)cc1-c1cc(N2CCOCC2)nc(N2CC(O)C2)c1` [Example 1097, N-(3-(2-(3-hydroxyazetidin-1-yl)-6-morpholinopyridin-4-yl)-4-methylphenyl)-2-(methylsulfonyl)isonicotinamide], the IC50 is 3.32 nM.

On to `Cc1ccc(NC(=O)c2ccnc(C3(C#N)CC3)c2)cc1-c1cc(N2CCOCC2)nc(N2CC(O)C2)c1` [Example 1071, 2-(1-cyanocyclopropyl)-N-(3-(2-(3-hydroxyazetidin-1-yl)-6-morpholinopyridin-4-yl)-4-methylphenyl)isonicotinamide], for which the IC50 came out at 2.08 nM. Still for that read-out and setting: in the case of `Cc1ncc(NC(=O)c2ccnc(C(C)(C)F)c2)cc1-c1cc(NCCO)nc(N2CCOCC2)c1` [Example 1056, 2-(2-fluoropropan-2-yl)-N-(2′-((2-hydroxyethyl)amino)-2-methyl-6′-morpholino-[3,4′-bipyridin]-5-yl)isonicotinamide] it was 11.2 nM; in that of `Cc1ncc(NC(=O)c2cnnc(C(F)(F)F)c2)cc1-c1cc(NCCO)nc(N2CCOCC2)c1` [Example 1051, N-(2′-((2-hydroxyethyl)amino)-2-methyl-6′-morpholino-[3,4′-bipyridin]-5-yl)-6-(trifluoromethyl)pyridazine-4-carboxamide], 8.19 nM; in that of `Cc1ncc(NC(=O)c2cccc(C(F)(F)F)c2)cc1-c1cc(N2CCOCC2)c2nccn2c1` [Example 883, N-(6-methyl-5-(8-morpholinoimidazo[1,2-a]pyridin-6-yl)pyridin-3-yl)-3-(trifluoromethyl)benzamide], 1.7 nM. As for `Cc1ccc(NC(=O)c2ccnc(C(F)(F)F)c2)cc1-c1cc(OCCO)nc(N2CCOCC2)c1` [Example 1156, N-(3-(2-(2-hydroxyethoxy)-6-morpholinopyridin-4-yl)-4-methylphenyl)-2-(trifluoromethyl)isonicotinamide], the IC50 stood at 0.73 nM. Same read-out and setting: in the case of `Cc1ccc(NC(=O)c2ccnc(C(C)(F)F)c2)cc1-c1cnc(OCCO)c(N2CCOCC2)c1` [Example 1000, 2-(1,1-difluoroethyl)-N-(3-(6-(2-hydroxyethoxy)-5-morpholinopyridin-3-yl)-4-methylphenyl)isonicotinamide] it was 2.15 nM; in that of `Cc1ncc(NC(=O)c2cccc(C(F)F)c2)cc1-c1cc(N2CCOCC2)c2nccn2c1` [Example 880, 3-(difluoromethyl)-N-(6-methyl-5-(8-morpholinoimidazo[1,2-a]pyridin-6-yl)pyridin-3-yl)benzamide], 3.2 nM; in that of `Cc1ncc(NC(=O)c2ccnc(C(F)(F)F)c2)cc1-c1cc(NCCO)nc(N2CCOCC2)c1` [Example 1040, N-(2′-((2-hydroxyethyl)amino)-2-methyl-6′-morpholino-[3,4′-bipyridin]-5-yl)-2-(trifluoromethyl)isonicotinamide], 4.35 nM. The same measure, in the same setting: the same measure for `Cc1ccc(NC(=O)c2ccnc(C(F)F)c2)cc1-c1cc(NCCO)nc(N2CCOCC2)c1` [Example 1053, 2-(difluoromethyl)-N-(3-(2-((2-hydroxyethyl)amino)-6-morpholinopyridin-4-yl)-4-methylphenyl)isonicotinamide]: 0.86 nM. Take `Cc1ccc(NC(=O)c2ccnc(C(F)(F)F)c2)cc1-c1cnc(OCCO)c(N2CCOCC2)c1` [Example 1002, N-(3-(6-(2-hydroxyethoxy)-5-morpholinopyridin-3-yl)-4-methylphenyl)-2-(trifluoromethyl)isonicotinamide]: the IC50 turned out to be 1.75 nM.

The assay is the same for the next values; noted with them: read-out: b-Raf IC-50; Table 2; AlphaScreen, 3 hours reaction.
Regarding `Cc1ncc(NC(=O)c2ccnc(C(C)(C)F)c2)cc1-c1cnc(OCCO)c(N2CCOCC2)c1` [Example 299, 2-(2-fluoropropan-2-yl)-N-(6′-(2-hydroxyethoxy)-2-methyl-5′-morpholino-[3,3′-bipyridin]-5-yl)isonicotinamide], the IC50 stood at 6.9 nM. Still for that read-out and setting: the same measure for `Cc1ncc(NC(=O)c2cc(C3CC3)nn2C)cc1-c1cc(N2CCOCC2)c(=O)n(C)c1` [Example 377, 3-cyclopropyl-N-(1′,2-dimethyl-5′-morpholino-6′-oxo-1′,6′-dihydro-[3,3′-bipyridin]-5-yl)-1-methyl-1H-pyrazole-5-carboxamide]: 200 nM; for `CCOc1ncc(-c2cc(NC(=O)c3cnnc(C(C)(C)F)c3)ccc2C)cc1N1CCOCC1` [Example 304, N-(3-(6-ethoxy-5-morpholinopyridin-3-yl)-4-methylphenyl)-6-(2-fluoropropan-2-yl)pyridazine-4-carboxamide]: 0.9 nM. On to `CCOc1ncc(-c2cc(NC(=O)c3ccnc(S(C)(=O)=O)c3)ccc2C)cc1N1CCOCC1` [Example 232, N-(3-(6-ethoxy-5-morpholinopyridin-3-yl)-4-methylphenyl)-2-(methylsulfonyl)isonicotinamide], for which the IC50 worked out at 0.8 nM. `Cn1cc(-c2cc(NC(=O)c3ccnc(C(C)(F)F)c3)ccc2F)cc(N2CCOCC2)c1=O` [Example 419]: the IC50 is 4.3 nM. For `Cc1ccc(NC(=O)c2ccnc(C(C)(C)F)c2)cc1-c1cc(N2CCOCC2)c(=O)n(C)c1` [Example 355, 2-(2-fluoropropan-2-yl)-N-(4-methyl-3-(1-methyl-5-morpholino-6-oxo-1,6-dihydropyridin-3-yl)phenyl)isonicotinamide], the IC50 amounted to 2.5 nM. For `CCCN(C(=O)c1cccc(C(F)(F)F)c1)c1cnc(C)c(-c2cnc(OC3CCOCC3)c(N3CCOCC3)c2)c1` [Example 330, N-(2-methyl-5′-morpholino-6′-((tetrahydro-2H-pyran-4-yl)oxy)-[3,3′-bipyridin]-5-yl)-N-propyl-3-(trifluoromethyl)benzamide], the IC50 is 2400 nM. The same measure, in the same setting: in the case of `Cc1ccc(NC(=O)c2ccnc(C3(C#N)CC3)c2)cc1-c1cc(N2CCOCC2)c(=O)n(C)c1` [Example 357, 2-(1-cyanocyclopropyl)-N-(4-methyl-3-(1-methyl-5-morpholino-6-oxo-1,6-dihydropyridin-3-yl)phenyl)isonicotinamide] it was 3.4 nM; in that of `CCOc1ncc(-c2cc(NC(=O)c3cnnc(C(F)(F)F)c3)cnc2C)cc1N1CCOC[C@H]1C` [Example 285], 200 nM. As to `Cc1ncc(NC(=O)c2cccc(C(F)(F)F)c2)cc1-c1cnc(OC2CC3(COC3)C2)c(N2CCOCC2)c1` [Example 322, N-(6′-(2-oxaspiro[3.3]heptan-6-yloxy)-2-methyl-5′-morpholino-[3,3′-bipyridin]-5-yl)-3-(trifluoromethyl)benzamide], the IC50 stood at 1.1 nM.

Source of the values: patent US9694016B2 (Novartis AG, priority 2013, dated 2017).
